Laboratory results: patent US4294972A, “1,2-Disubstituted oxo triazolidine” (Beecham Group Limited, priority 1978, dated 1981)

How the values were obtained:
[1] = test system: 5-hydroxytryptamine or histamine induced bronchoconstriction; test: Konzett-Rossler preparation: inhibition of 5-hydroxytryptamine or histamine induced bronchoconstriction, anaesthetised artificially respired guinea pig; assay type: in vivo; details: Cavia porcellus, iv
Protocol: 1. The compounds were examined for their ability to inhibit 5-hydroxytryptamine or histamine induced bronchoconstriction in the anaesthetised, artificially respired guinea pig (Konzett-Rossler preparation). The compounds were administered intravenously.

[2] = test system: bronchoconstriction induced by an histamine aerosol; test: Herxheimer test: protection of conscious guinea pigs against histamine aerosol induced bronchoconstriction; assay type: in vivo, guinea pig; details: at 10 μg/ml after two minutes, mean of several experiments
Protocol: 2. The compounds were also examined for their ability to protect conscious guinea pigs against bronchoconstriction induced by an histamine aerosol (Herxheimer test). In these experiments the compounds were administered by aerosol. The results are the mean of several experiments.

For CCCCCCC(C)(O)CCn1c(=O)n(C)c(=O)n1CCCCCCCC(C)=O (stereo not drawn) [Compound 1, 1-(8-oxononyl)-2-(3"-hydroxy-3"-methylnonyl)-4-methyl-1,2,4-triazolidine-3,5-dione], the ED50 [1] was 2.7 µg/kg and the “Herxheimer % increase in preconvulsive coughing time” value (from here on “Herxheimer % increase”) [2] was “Active”.
For CCCCCC(O)CCn1c(=O)n(C)c(=O)n1CCCCCCCC(C)=O (stereo not drawn) [Compound 8], the ED50 [1] was 6.9 µg/kg and the “Herxheimer % increase” value [2] was 31%.
In the case of CCCCCCC(C)(O)CCn1c(=O)n(C)c(=S)n1CCCCCCCC(C)=O (stereo not drawn) [Compound 9], the ED50 [1] is reported as 26.5 µg/kg and the “Herxheimer % increase” value [2] is reported as 52%.
